{"source": "PubChem BioAssay AID1259409", "about": "(Chemical Carcinogenesis Research Information System (CCRIS), 2018)", "origin": "cited, not measured here", "system": "rodent chemically induced tumor inhibition, incidence and multiplicity", "test": "CCRIS tumor inhibitor studies", "conditions": "Promoter: NONE USED", "data": [{"smiles": "COc1ccc2c(c1)c(CC(=O)O)c(C)n2C(=O)c1ccc(Cl)cc1", "values": [{"measurement": "tumour outcome (control, treated, inhibition, significance)", "setting": "Carcinogen: N-ETHYL-N-NITROSOUREA, 759-73-9, Dose [Inhibitor]: 0, 20 MG/L IN DRINKING WATER FOR 12 MO ADMINISTERED TO OFFSPRING OF CARCINOGEN-TREATED MOTHERS (STUDY DURATION: 12 MO), Route [Inhibitor]: ORAL, Species: RAT, Strain/Sex: ALBINO/MALE, FEMALE, Target Tissue: Type of Lesion: PERIPHERAL NERVES: TUMOR, Dose [Carcinogen]: 75 MG/KG BW ADMINISTERED INTRAPERITONEALLY TO MOTHERS 21 D POST CONCEPTION", "value": "13/42 (31%), 3/25 (12%), 61%, not significant"}, {"measurement": "tumour outcome (control, treated, inhibition, significance)", "setting": "Carcinogen: N-ETHYL-N-NITROSOUREA, 759-73-9, Dose [Inhibitor]: 0, 20 MG/L IN DRINKING WATER FOR 12 MO ADMINISTERED TO OFFSPRING OF CARCINOGEN-TREATED MOTHERS (STUDY DURATION: 12 MO), Route [Inhibitor]: ORAL, Species: RAT, Strain/Sex: ALBINO/MALE, FEMALE, Target Tissue: Type of Lesion: SPINAL CHORD: TUMOR, Dose [Carcinogen]: 75 MG/KG BW ADMINISTERED INTRAPERITONEALLY TO MOTHERS 21 D POST CONCEPTION", "value": "11/42 (26%), 4/25 (16%), 38%, not significant"}, {"measurement": "tumour outcome (control, treated, inhibition, significance)", "setting": "Carcinogen: N-METHYL-N-NITROSOUREA, 684-93-5, Dose [Inhibitor]: 2.5 MG/KG BW FOR 10 WK STARTING 21 WK POST CARCINOGEN TREATMENT (STUDY DURATION: 35 WK), Route [Inhibitor]: INTRAPERITONEAL, Species: RAT, Strain/Sex: CD/F344/FEMALE, Target Tissue: Type of Lesion: COLON: ADENOCARCINOMA, Dose [Carcinogen]: 2 MG 3/WK FOR 5 WK", "value": "6/9 (67%), 6/9 (67%), 0%, not significant"}, {"measurement": "tumour outcome (control, treated, inhibition, significance)", "setting": "Carcinogen: N-METHYL-N-NITROSOUREA, 684-93-5, Dose [Inhibitor]: 2.5 MG/KG BW FOR 15 WK STARTING 5 WK POST CARCINOGEN TREATMENT (STUDY DURATION: 26 WK), Route [Inhibitor]: INTRAPERITONEAL, Species: RAT, Strain/Sex: CD/F344/FEMALE, Target Tissue: Type of Lesion: COLON: ADENOCARCINOMA, Dose [Carcinogen]: 2 MG 3/WK FOR 5 WK", "value": "20/30 (67%), 9/29 (31%), 54%, p<0.02"}, {"measurement": "tumour outcome (control, treated, inhibition, significance)", "setting": "Carcinogen: N-METHYL-N-NITROSOUREA, 684-93-5, Dose [Inhibitor]: 2.5 MG/KG BW FOR 15 WK STARTING 5 WK POST CARCINOGEN TREATMENT FOLLOWED BY 10 WK CESSATION OF TREATMENT (STUDY DURATION:, Route [Inhibitor]: INTRAPERITONEAL, Species: RAT, Strain/Sex: CD/F344/FEMALE, Target Tissue: Type of Lesion: COLON: ADENOCARCINOMA, Dose [Carcinogen]: 2 MG 3/WK FOR 5 WK", "value": "6/9 (67%), 7/9 (78%), -16%, not significant"}, {"measurement": "tumour outcome (control, treated, inhibition, significance)", "setting": "Carcinogen: N-METHYL-N-NITROSOUREA, 684-93-5, Dose [Inhibitor]: 10 UG/ML TAP WATER FOR 15 WK STARTING 10 WK AFTER THE START OF CARCINOGEN TREATMENT AND CONTINUING THROUGH END OF STUDY, Route [Inhibitor]: ORAL, Species: RAT, Strain/Sex: CD-FISCHER/FEMALE, Target Tissue: Type of Lesion: LARGE INTESTINE: ADENOCARCINOMA, Dose [Carcinogen]: 2 MG 3/WK FOR 5 WK", "value": "18/27 (67%), 4/28 (14%), 79%, p<0.01"}, {"measurement": "tumour outcome (control, treated, inhibition, significance)", "setting": "Carcinogen: N-METHYL-N-NITROSOUREA, 684-93-5, Dose [Inhibitor]: 20 UG/ML TAP WATER FOR 15 WK STARTING 10 WK AFTER THE START OF CARCINOGEN TREATMENT AND CONTINUING THROUGH END OF STUDY, Route [Inhibitor]: ORAL, Species: RAT, Strain/Sex: CD-FISCHER/FEMALE, Target Tissue: Type of Lesion: LARGE INTESTINE: ADENOCARCINOMA, Dose [Carcinogen]: 2 MG 3/WK FOR 5 WK", "value": "18/27 (67%), 4/24 (17%), 75%, p<0.01"}, {"measurement": "tumour outcome (control, treated, inhibition, significance)", "setting": "Carcinogen: N-NITROSOMETHYLUREA, 684-93-5, Dose [Inhibitor]: 0, 0.001% IN DRINKING WATER FOR STUDY DAYS 1 TO 8 (STUDY DURATION: 31 WK), Route [Inhibitor]: ORAL, Species: RAT, Strain/Sex: SPRAGUE-DAWLEY/MALE, Target Tissue: Type of Lesion: LARGE BOWEL: ADENOCARCINOMA, Dose [Carcinogen]: 4 MG ON D 3, 5 AND 7 OF STUDY", "value": "26/29 (90%), 20/30 (67%), 26%, not significant"}, {"measurement": "tumour outcome (control, treated, inhibition, significance)", "setting": "Carcinogen: UVB IRRADIATION, Dose [Inhibitor]: 700 NMOL IN 0.1 ML ACETONE 5/WK FOR 4 WK IMMEDIATELY AFTER EACH EXPOSURE TO UVB FOLLOWED BY 48 WK OBSERVATION PERIOD (ST, Route [Inhibitor]: DERMAL, Species: MOUSE, Strain/Sex: SKH/HRL/FEMALE, Target Tissue: Type of Lesion: SKIN: TUMOR, Dose [Carcinogen]: 0.3 KJ/SQM ON FIRST DAY, 0.6 KJ/SQM ON SECOND DAY THEN 0.9 KJ/SQM UVB ADMINISTERED 5 D/WK FOR 4 WK", "value": "8/27 (30%), 6/26 (23%), 23%, not significant"}, {"measurement": "tumour outcome (control, treated, inhibition, significance)", "setting": "Dose [Inhibitor]: 0, 0.005% IN DIET FOR DURATION OF STUDY BEGINNING SIMULTANEOUSLY WITH CARCINOGEN TREATMENT (STUDY DURATION: 40 WK), Route [Inhibitor]: ORAL, Species: RAT, Strain/Sex: WISTAR/MALE, Target Tissue: Type of Lesion: COLON: TUMOR, Dose [Carcinogen]: 1 ML OF 0.1% DISTILLED WATER SOLUTION 1/D FOR 14 D", "value": "27/33 (82%), 5/18 (28%), 66%, p<0.01"}]}]}
